{"source": "patent US20220125771A1", "about": "“S[…], ANALOGUES THEREOF, AND METHODS USING SAME” (priority 2019, published 2022)", "test_system": "HBsAg in HepG2.2.15 cells", "experiment": "HBsAg Assay: inhibition of HBsAg in HepG2.2.15 cells (CLIA immunoassay of supernatant)", "assay_type": "cell-based, hepatitis B virus", "details": "supernatant collected at day 6 after exposure of compounds, final DMSO 0.5%", "procedure": "Inhibition of HBsAg was determined in HepG2.2.15 cells. Cells were maintained in culture medium containing 10% fetal calf serum, […], Glutamine, penicillin/streptomycin. Cells were seeded in 96-well collagen-coated plate at a density of 30,000 cells/well. Serially diluted compounds were added to cells next day at the final DMSO concentration of 0.5%. Cells were incubated with compounds for 2-3 days, after which medium was removed. Fresh medium containing compounds was added to cells for additional 3-4 days. At day 6 after exposure of compounds, supernatant was collected, the HBsAg immunoassay (microplate-based chemiluminescence immunoassay kits, CLIA, Autobio Diagnosics Co., Zhengzhou, China, Catalog #CL0310-2) was used to determine the level of HBsAg according to manufactory instruction. Dose-response curves were generated and the EC50 value (effective concentrations that achieved 50% inhibitory effect) were determined using XLfit software. In addition, cells were seeded at a density of 5,000 cells/well for determination of cell viability in the presence and absence of compounds by using CellTiter-Glo reagent (Promega). Tables 1-3 show EC50 values obtained by the HBsAg assay for selected compounds.", "key": {"[1]": {"details": "read-out: sAg EC50, HepG2.2.15 cells"}, "[2]": {"details": "Hepatitis B virus, HepG2.2.15, 144 h, read-out: sAg EC50, μM, HepG2.2.15 cells"}}, "note": "Like-named read-outs stand apart in the source and are kept apart here."}
{"smiles": "Cn1c2c(cc(C(=O)O)c1=O)C(C(C)(C)C)Cc1c-2cc(OC(F)F)c2ncccc12", "note": "(single isomer, unassigned) [Example 40, 6-(tert-Butyl)-12-(difluoromethoxy)-10-methyl-9-oxo-5,6,9,10-tetrahydroquinolino[7,8-f]quinoline-8-carboxylic Acid]", "values": [{"measurement": "EC50", "setting": "[1]", "result": 0.2, "unit": "µM"}]}
{"smiles": "CC(C)(C)C1Cn2c(cc3c(OC(F)F)cccc32)-c2[nH]c(=O)c(C(=O)O)c(O)c21", "note": "(stereo not shown) [Example 1, 5-(tert-Butyl)-11-(difluoromethoxy)-4-hydroxy-2-oxo-1,2,5,6-tetrahydroindolo[1,2-h][1,7]naphthyridine-3-carboxylic Acid]", "values": [{"measurement": "EC50", "setting": "[2]", "result": 0.009, "unit": "µM"}]}
{"smiles": "COCCOc1cccc2c1cc1n2CC(C(C)(C)C)c2c-1[nH]c(=O)c(C(=O)O)c2O", "note": "(stereo not shown) [Example 6, 5-(tert-Butyl)-4-hydroxy-11-(2-methoxyethoxy)-2-oxo-1,2,5,6-tetrahydroindolo[1,2-h][1,7] naphthyridine-3-carboxylic Acid]", "values": [{"measurement": "EC50", "setting": "[2]", "result": 0.76, "unit": "µM"}]}
{"smiles": "COc1cccc2c1nc1n2CC(C(C)(C)C)c2cc(C(=O)O)c(=O)[nH]c2-1", "note": "(single isomer, unassigned) [Example 27, 5-(tert-Butyl)-11-methoxy-2-oxo-1,2,5,6-tetrahydrobenzo[4,5]imidazo[1,2-h][1,7]naphthyridine-3-carboxylic Acid]", "values": [{"measurement": "EC50", "setting": "[1]", "result": 10, "unit": "µM"}]}
{"smiles": "COc1cccc2c1cc1n2CC(C(C)(C)C)c2c-1[nH]c(=O)c(C(=O)O)c2O", "note": "(stereo not shown) [Example 4, 5-(tert-Butyl)-4-hydroxy-11-methoxy-2-oxo-1,2,5,6-tetrahydroindolo[1,2-h][1,7]naphthyridine-3-carboxylic Acid]", "values": [{"measurement": "EC50", "setting": "[2]", "result": 0.13, "unit": "µM"}]}
{"smiles": "CC(C)C1Cc2c(nc3c(OC(F)F)cccn23)-c2[nH]c(=O)c(C(=O)O)cc21", "note": "(single isomer, unassigned) [Example 12, 11-(Difluoromethoxy)-5-isopropyl-2-oxo-1,2,5,6-tetrahydropyrido[2′,1′:2,3]imidazo[4,5-h]quinoline-3-carboxylic Acid]", "values": [{"measurement": "EC50", "setting": "[1]", "result": 0.018, "unit": "µM"}]}
{"smiles": "CCOc1cccc2c1cc1n2CC(C(C)(C)C)c2c-1[nH]c(=O)c(C(=O)O)c2O", "note": "(stereo not shown) [Example 5, 5-(tert-Butyl)-11-ethoxy-4-hydroxy-2-oxo-1,2,5,6-tetrahydroindolo[1,2-h]naphthyridine-3-carboxylic Acid]", "values": [{"measurement": "EC50", "setting": "[2]", "result": 0.13, "unit": "µM"}]}
{"smiles": "Cn1c2c(cc(C(=O)O)c1=O)C(C(C)(C)C)Cc1c-2nc(Cl)c2ccccc12", "note": "(single isomer, unassigned) [Example 45, 12-(tert-Butyl)-6-chloro-4-methyl-3-oxo-3,4,11,12-tetrahydrobenzo[c][1,10]phenanthroline-2-carboxylic Acid]", "values": [{"measurement": "EC50", "setting": "[1]", "result": 1, "unit": "µM"}]}
{"smiles": "COc1nc2c(c3ccccc13)CC(C(C)(C)C)c1cc(C(=O)O)c(=O)[nH]c1-2", "note": "(single isomer, unassigned) [Example 41, 12-(tert-Butyl)-6-methoxy-3-oxo-3,4,11,12-tetrahydrobenzo[c][1,10]phenanthroline-2-carboxylic Acid]", "values": [{"measurement": "EC50", "setting": "[1]", "result": 0.001, "unit": "µM"}]}
{"smiles": "COc1cccc2c1nc1n2CC(C(C)(C)C)c2cc(C(=O)O)c(=O)[nH]c2-1", "note": "(single isomer, unassigned) [Example 28, 5-(tert-Butyl)-11-methoxy-2-oxo-1,2,5,6-tetrahydrobenzo[4,5]imidazo[1,2-h][1,7]naphthyridine-3-carboxylic Acid]", "values": [{"measurement": "EC50", "setting": "[1]", "result": 0.093, "unit": "µM"}]}
{"smiles": "COc1ccn2c3c(nc2c1OC)-c1[nH]c(=O)c(C(=O)O)cc1C(C(C)(C)C)C3", "note": "(single isomer, unassigned) [Example 19, 5-(tert-Butyl)-10,11-dimethoxy-2-oxo-1,2,5,6-tetrahydropyrido[2′,1′:2,3]imidazo[4,5-h]quinoline-3-carboxylic Acid]", "values": [{"measurement": "EC50", "setting": "[1]", "result": 8, "unit": "µM"}]}
{"smiles": "COc1cccc2c1nc1n2CC(C(C)(C)C)c2c-1[nH]c(=O)c(C(=O)O)c2O", "note": "(stereo not shown) [Example 24, 5-(tert-Butyl)-4-hydroxy-11-methoxy-2-oxo-1,2,5,6-tetrahydrobenzo[4,5]imidazo[1,2-h][1,7]naphthyridine-3-carboxylic Acid]", "values": [{"measurement": "EC50", "setting": "[2]", "result": 0.02, "unit": "µM"}]}
{"smiles": "CC(C)(C)C1Cc2c(cc(OC(F)F)c3ncccc23)-c2[nH]c(=O)c(C(=O)O)c(O)c21", "note": "(stereo not shown) [Example 29, 6-(tert-Butyl)-12-(difluoromethoxy)-7-hydroxy-9-oxo-5,6,9,10-tetrahydroquinolino[7,8-f]quinoline-8-carboxylic Acid]", "values": [{"measurement": "EC50", "setting": "[2]", "result": 0.001, "unit": "µM"}]}
{"smiles": "COCCCN1CCCc2c3c(cc(OC(F)F)c21)-c1[nH]c(=O)c(C(=O)O)cc1C(C(C)(C)C)C3", "note": "(stereo not shown) [Example 30, 6-(tert-Butyl)-12-(difluoromethoxy)-1-(3-methoxypropyl)-9-oxo-1,2,3,4,5,6,9,10-octahydroquinolino[7,8-f]quinoline-8-carboxylic Acid]", "values": [{"measurement": "EC50", "setting": "[2]", "result": 0.2, "unit": "µM"}]}
{"smiles": "CC(C)(C)C1Cn2c(nc3c(OC(F)F)cccc32)-c2[nH]c(=O)c(C(=O)O)c(O)c21", "note": "(stereo not shown) [Example 25, 5-(tert-Butyl)-11-(difluoromethoxy)-4-hydroxy-2-oxo-1,2,5,6-tetrahydrobenzo[4,5]imidazo[1,2-h][1,7]naphthyridine-3-carboxylic Acid]", "values": [{"measurement": "EC50", "setting": "[2]", "result": 0.004, "unit": "µM"}]}
{"smiles": "CC(C)C1Cc2cc(C(=O)O)c(=O)[nH]c2-c2nc3c(OC(F)F)cccn3c21", "note": "(single isomer, unassigned) [Example 21, 11-(Difluoromethoxy)-6-isopropyl-2-oxo-1,2,5,6-tetrahydropyrido[2′,1′:2,3]imidazo[4,5-h]quinoline-3-carboxylic Acid]", "values": [{"measurement": "EC50", "setting": "[1]", "result": 6, "unit": "µM"}]}
{"smiles": "CC(C)(C)C1Cc2c(nc3c(OC(F)F)cccn23)-c2[nH]c(=O)c(C(=O)O)c(O)c21", "note": "(single isomer, unassigned) [Example 8, 5-(tert-Butyl)-11-(difluoromethoxy)-4-hydroxy-2-oxo-1,2,5,6-tetrahydropyrido[2′,1′:2,3]imidazo[4,5-h]quinoline-3-carboxylic Acid]", "values": [{"measurement": "EC50", "setting": "[1]", "result": 0.22, "unit": "µM"}]}
{"smiles": "CCN1CCCc2c3c(cc(OC(F)F)c21)-c1[nH]c(=O)c(C(=O)O)cc1C(C(C)(C)C)C3", "note": "(stereo not shown) [Example 34, 6-(tert-Butyl)-12-(difluoromethoxy)-1-ethyl-9-oxo-1,2,3,4,5,6,9,10-octahydroquinolino[7,8-f]quinoline-8-carboxylic Acid]", "values": [{"measurement": "EC50", "setting": "[2]", "result": 0.012, "unit": "µM"}]}
{"smiles": "CC(C)(C)C1Cc2c(nc3c(OC(F)F)cccn23)-c2[nH]c(=O)c(C(=O)O)cc21", "note": "(single isomer, unassigned) [Example 10, 5-(tert-Butyl)-11-(difluoromethoxy)-2-oxo-1,2,5,6-tetrahydropyrido[2′,1′:2,3]imidazo[4,5-h]quinoline-3-carboxylic Acid]", "values": [{"measurement": "EC50", "setting": "[1]", "result": 0.003, "unit": "µM"}]}
{"smiles": "Cn1c2c(cc(C(=O)O)c1=O)C(C(C)(C)C)Cc1c-2cc(OC(F)F)c2ncccc12", "note": "(single isomer, unassigned) [Example 39, 6-(tert-Butyl)-12-(difluoromethoxy)-10-methyl-9-oxo-5,6,9,10-tetrahydroquinolino[7,8-f]quinoline-8-carboxylic Acid]", "values": [{"measurement": "EC50", "setting": "[1]", "result": 10, "unit": "µM"}]}
{"smiles": "CN1CCCc2c3c(cc(OC(F)F)c21)-c1[nH]c(=O)c(C(=O)O)cc1C(C(C)(C)C)C3", "note": "(single isomer, unassigned) [Example 32, 6-(tert-Butyl)-12-(difluoromethoxy)-1-methyl-9-oxo-1,2,3,4,5,6,9,10-octahydroquinolino[7,8-f]quinoline-8-carboxylic Acid]", "values": [{"measurement": "EC50", "setting": "[1]", "result": 0.002, "unit": "µM"}]}
{"smiles": "CC(C)C1Cc2cc(C(=O)O)c(=O)[nH]c2-c2nc3c(OC(F)F)cccn3c21", "note": "(single isomer, unassigned) [Example 20, 11-(Difluoromethoxy)-6-isopropyl-2-oxo-1,2,5,6-tetrahydropyrido[2′,1′:2,3]imidazo[4,5-h]quinoline-3-carboxylic Acid]", "values": [{"measurement": "EC50", "setting": "[1]", "result": 0.099, "unit": "µM"}]}
{"smiles": "COc1ccn2c3c(nc2c1OC)-c1[nH]c(=O)c(C(=O)O)cc1C(C(C)(C)C)C3", "note": "(single isomer, unassigned) [Example 18, 5-(tert-Butyl)-10,11-dimethoxy-2-oxo-1,2,5,6-tetrahydropyrido[2′,1′:2,3]imidazo[4,5-h]quinoline-3-carboxylic Acid]", "values": [{"measurement": "EC50", "setting": "[1]", "result": 0.005, "unit": "µM"}]}
{"smiles": "CC(C)(C)C1Cc2c(cc(OC(F)F)c3c2CCCN3)-c2[nH]c(=O)c(C(=O)O)c(O)c21", "note": "(stereo not shown) [Example 9, 6-(tert-Butyl)-12-(difluoromethoxy)-7-hydroxy-9-oxo-1,2,3,4,5,6,9,10-octahydroquinolino[7,8-f]quinoline-8-carboxylic Acid]", "values": [{"measurement": "EC50", "setting": "[2]", "result": 0.011, "unit": "µM"}]}
{"smiles": "COc1cc2c(c3cccnc13)CC(C(C)(C)C)c1cc(C(=O)O)c(=O)[nH]c1-2", "note": "(single isomer, unassigned) [Example 35, 6-(tert-Butyl)-12-methoxy-9-oxo-5,6,9,10-tetrahydroquinolino[7,8-f]quinoline-8-carboxylic Acid]", "values": [{"measurement": "EC50", "setting": "[1]", "result": 0.027, "unit": "µM"}]}
{"smiles": "COc1ccn2c3c(nc2c1OC)-c1c(cc(C(=O)O)c(=O)n1C)C(C(C)(C)C)C3", "note": "(single isomer, unassigned) [Example 22, 5-(tert-Butyl)-10,11-dimethoxy-1-methyl-2-oxo-1,2,5,6-tetrahydropyrido[2′,1′:2,3]imidazo[4,5-h]quinoline-3-carboxylic Acid]", "values": [{"measurement": "EC50", "setting": "[1]", "result": 0.11, "unit": "µM"}]}
{"smiles": "COc1nc2c(c3ccccc13)CC(C(C)(C)C)c1cc(C(=O)O)c(=O)n(C)c1-2", "note": "(stereo not shown) [Example 43, 12-(tert-Butyl)-6-methoxy-4-methyl-3-oxo-3,4,11,12-tetrahydrobenzo[c][1,10]phenanthroline-2-carboxylic Acid]", "values": [{"measurement": "EC50", "setting": "[2]", "result": 0.023, "unit": "µM"}]}
{"smiles": "CC(C)(C)C1Cc2c(nc3c(OC(F)F)cccn23)-c2[nH]c(=O)c(C(=O)O)c(O)c21", "note": "(single isomer, unassigned) [Example 7, 5-(tert-Butyl)-11-(difluoromethoxy)-4-hydroxy-2-oxo-1,2,5,6-tetrahydropyrido[2′,1′:2,3]imidazo[4,5-h]quinoline-3-carboxylic Acid]", "values": [{"measurement": "EC50", "setting": "[1]", "result": 0.002, "unit": "µM"}]}
